One block for each compound: values may come before it.
What was measured:
human OR1A1 receptor = target: T1, human OR1A1 receptor (Homo sapiens, UniProt Q9P1Q5); experiment: Two-bottle behavioral avoidance task with (−)-Carvone in 5•OR1A1Cβ mice; assay type: in vivo, mouse
T1 construct: expressed in transfected cells; host or cells: olfactory sensory neurons of living 5•OR1A1Cβ hemizygous transgenic mice
T1 sequence (Q9P1Q5 1-309): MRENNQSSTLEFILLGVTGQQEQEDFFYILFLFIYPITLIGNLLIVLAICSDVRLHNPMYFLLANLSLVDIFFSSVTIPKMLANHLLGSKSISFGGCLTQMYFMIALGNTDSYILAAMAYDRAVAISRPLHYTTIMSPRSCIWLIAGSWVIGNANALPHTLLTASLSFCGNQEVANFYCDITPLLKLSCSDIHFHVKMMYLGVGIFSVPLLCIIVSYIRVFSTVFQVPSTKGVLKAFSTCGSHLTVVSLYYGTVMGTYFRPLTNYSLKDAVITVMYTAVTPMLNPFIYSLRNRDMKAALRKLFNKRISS
Description: To further evaluate the versatility of this platform, the probability of choice of expression of a human OR was increased by cloning OR1A1 into the 5×21 M71 transgenic backbone. […] Again omp levels were not changed. Clearly, the representation of some ORs must be decreased to explain this equilibrium. In the 4•M71Cα homo animals, a mere 2-log increase in M71 RNA levels leads to a detectable 0.3-log change in threshold. Therefore, without wishing to be bound to any particular theory, it is believed that further increases in the neuronal representation of specific ORs may decrease detection thresholds even more. However, a delicate balance must exist between cell number and sensitivity. This hypothesis was tested using the established two-bottle behavioral avoidance task with the 5•OR1A1Cβ mice (FIG. 3B). Conditioning of 5•OR1A1Cβ hemi animals (n=12) was performed and their WT littermates (n=7) to water containing a 10-4 dilution of (−)-Carvone, a known OR1A1 ligand. For four consecutive days, animals were given the choice between plain water and water with decreasing (10-4, 10-6, 10-7 and 10-8) dilutions of (−) Carvone (FIG. 3C). Both groups (WT and Hemi) show clear aversion towards a 10^−4 dilution of (−)-Carvone (AVG PI WT=6.17% and AVG PI hemi=10.26%), reflecting successful conditioning. Both WT (AVG PI=55.52%) and Hemi (AVG PI=47.88%) cannot detect a 10^−8 dilution of (−)-Carvone. At 10^−6 and 10^−7 however, there is a clear difference in detection between WT and Hemi (10^−6: AVG PI WT=27.65% vs. AVG PI Hemi=11.41, Student's T-test p<0.01 and 10^−7: AVG PI WT=53.88% vs. AVG PI Hemi=30.24, Student's T-test p<0.05). […] These findings indicate that expressing OR1A1 in about 40% of the OSNs translates into a 2-log difference in (−)-Carvone detection thresholds.
Olfactory behavior test: A two-bottle discrimination test was performed as previously described. Since the mice are tested for the ability to detect a single odor in drinking water at increasingly lower concentrations, this discrimination assay is also considered a detection threshold test. Mice 8 weeks old were individually housed and given food ad libitum but restricted access to saccharin-phthalic acid solution (2.1×10^−2 M sodium saccharin and 10^−3M phthalic acid pH 6.5) for 1 h twice a day for two days before the assay begins. This ensures mice would commence drinking the solution during the conditioning. On day 3 (conditioning day) mice are exposed to sodium saccharine phthalic acid (SSPA) solution with 1 dilution of odorized water for 10 minutes. Immediately after, they are injected with lithium chloride intraperitoneally (15 μl/g body weight of a 0.6 M solution) to induce the aversive malaise and lethargy state. After two hours mice are returned to their home cage and given access to two bottles of drinking water; they are given the choice between SSPA solution containing a 10^−4 dilution of the odor versus the non-odorized SSPA solution. During the following 3 days, every 24 hours, the location of the bottles is reversed and the concentration of the odorized solution is decreased to 10^−6, 10^−7 and 0.5×10^−6, respectively. Every day both bottles are weighed to determine the amount of liquid consumed. A preference index was calculated as the amount of odorized solution consumed divided by the total amount of water solution consumed for each mouse for every 24 hour test period at each odor concentration. Student's t test was performed to test statistical significance, assuming two-tailed distribution and two-sample unequal variance. Values are mean±SEM and are plotted on a LOG scale.

M71 = target: T2, M71 (Mus musculus, UniProt Q60893); details: previous ex vivo data; liquid phase; cited from earlier work
T2 construct: from ex vivo analysis of genetically defined M71 OSNs in gene-targeted mice; host or cells: dendritic knobs of M71-expressing olfactory sensory neurons from gene-targeted mice
T2 sequence (Q60893 1-309): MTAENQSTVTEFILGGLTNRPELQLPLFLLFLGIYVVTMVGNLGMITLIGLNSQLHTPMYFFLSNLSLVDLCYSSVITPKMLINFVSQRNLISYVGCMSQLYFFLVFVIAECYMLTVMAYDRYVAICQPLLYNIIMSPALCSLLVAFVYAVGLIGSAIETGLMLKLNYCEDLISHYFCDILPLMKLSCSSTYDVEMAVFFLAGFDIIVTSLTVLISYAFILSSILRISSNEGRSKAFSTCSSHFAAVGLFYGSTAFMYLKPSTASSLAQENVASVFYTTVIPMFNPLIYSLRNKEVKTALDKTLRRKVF

M71 OR = target: T3, M71 OR (Mus musculus, UniProt Q60893); experiment: In vivo synaptophluorin (SpH) imaging of odor-evoked glomerular activity in 4•M71Cα mice; details: for glomerular activity (in vivo SpH imaging): 4•M71Cα animals, vapor phase, odor dilutions 0% to 15%; for average highest (dF/F)max: hemizygous 4•M71Cα animals, ACP at 1.77 uM, 24dMACP at 0.66 uM; for average highest (dF/F)max / highest efficacy [(dF/F)max]: 4MACP at 0.69 uM; for efficacy [average (dF/F)max]: delivered at the same concentration, ˜0.70 uM; for highest efficacy [(dF/F)max]: homozygous 4•M71Cα animals, ACP at 2.66 uM, 24dMACP at 0.46 uM; for efficacy [(dF/F)max]: 0.71 uM; for response [(dF/F)max] at highest concentration delivered: 2.66 uM
T3 construct: the increase of OSNs expressing the M71 OR results in the coalescence of labeled axons; expressed in transfected cells; host or cells: olfactory sensory neurons of living transgenic mice (4•M71Cα, 5•M71Cα), made by pronuclear injection of the M71 minigene
T3 sequence (Q60893 1-309): T2 sequence (Q60893 1-309)
Description: Because the M71 OR is dorsally expressed in the olfactory bulb, any cloned OR using the M71 transgenic backbone will coalesce its axons onto dorsally located glomeruli, which makes them accessible for optical imaging. Optical imaging was therefore used to functionally characterize transgenic M71 projections in the OB. To examine their functional properties odor-evoked activity was imaged from the OBs of mice expressing the genetically encoded activity reporter SpH in all mature OSNs. Simultaneously recordings were obtained from mice that are either hemizygous or homozygous for 4•M71Cα (gene-targeted M71-GFP is out crossed) and heterozygous for SpH and identify red M71 glomeruli. Seven different M71-selective ligands were used from ex vivo analysis of genetically defined M71 OSNs in gene-targeted mice: three of these ligands produced responses by SpH imaging: Acetophenone (ACP), 4-methyl acetophenone (4MACP) and 2,4-dimethyl acetophenone (24dMACP) when delivered at different odor dilutions varying between 0% and 15%. The maximum change in fluorescence [(dF/F)max] per odor concentration was calculated for each compound over a 14 s trial period having a pre-odor (3 s), odor (4 s) and post-odor (4 s) acquisition. dF/F values for all glomeruli were calculated with a standardized 50 μm window, which is fully contained in all imaged glomeruli of both hemi and homo 4•M71Cα animals. (FIG. 2A, FIG. 2B and FIG. 2C: Each data point represents the average (dF/F). of 4-16 glomeruli imaged). […] All imaged mice are heterozygous for omp-SpH.
Olfactometry: Odors (purchased form Sigma Aldrich) were delivered using a custom built olfactometer controlled by an Arduino board with custom shields operating Teflon solenoids (Neptune Research) and connected to two Mass Flow Controllers (Alicat Scientific, Inc) to dilute the clean air (N2, max flow is 2 Lpm) and to dilute the odorized air (max flow is 300 SCCM). Nitrogen (N2) was used as the vapor carrier to avoid oxidation. Odor concentrations are expressed a % dilutions of saturated vapor and as molar saturated vapor concentration (μM s.v.), calculated using published vapor pressures at 25° Celsius (US EPA, Estimation Programs Interface Suite, v 4.0. Flow diluted odors were delivered at 2 Lpm mixed prior to the delivery site with air odorized with varying dilutions of odorant taken from the saturated headspace of pre-cleaned amber vials with white polypropylene closures and septum (J. G. Finneran) containing 99% pure odorants. To avoid contamination of the olfactometer, odorized air was never passed through the Teflon valves. Instead, odors were mixed with N2 in T-shaped mixing chambers (Neptune Research) and delivered to the animal's nose using an arduino controlled vacuum system. […] Output of the olfactometer was calibrated using the tracer odor Pinene and a photoionization detector (PID; Aurora Scientific).
In vivo SpH Imaging: Mice were anesthetized using Ketamine (100 mg/kg)/Xylazin (5 mg/kg) and maintained with Isoflurane (2.5% in 02) and immobilized using a stereotactic head holding device (Narishige, Inc.). Optical signals for SpH and mCherry were recorded using an ANDOR Neo 5.5 sCMOS camera connected to a NIKON AZ100 epifluorescence microscope (NIS Elements) with a 4× objective (numerical aperture 0.4). Excitation wavelengths of 475 nm for SpH and 575 nm for mCherry and emission of 520 nm for SpH and 635 nm for mCherry were used to obtain images of the dorsolateral bulb through thinned skull overlaying the bulb of a freely breathing animal. Each imaging trial consisted of a pre-odor (3 s), odor (4 s) and post-odor (4 s) acquisition, with a total acquisition time per trial of 14 s (including 3 s of valve switch delay). Using serial code, the arduino controlling the olfactometer was integrated in the NIS Elements software, so that the entire image acquisition sequence and flow-diluted odor delivery is controlled by the microscope software. […]

[1] = at 25° C.; cited from earlier work

difference in detection thresholds (human OR1A1 receptor; 5•OR1A1Cβ hemi vs WT): 2 log
AVG PI (human OR1A1 receptor; 5•OR1A1Cβ hemi, 10^−4 dilution): 10.26%
AVG PI (human OR1A1 receptor; 5•OR1A1Cβ hemi, 10^−6 dilution): 11.41
AVG PI (human OR1A1 receptor; 5•OR1A1Cβ hemi, 10^−7 dilution): 30.24
AVG PI (human OR1A1 receptor; 5•OR1A1Cβ hemi, 10^−8 dilution): 47.88%
AVG PI (human OR1A1 receptor; WT littermates, 10^−4 dilution): 6.17%
AVG PI (human OR1A1 receptor; WT littermates, 10^−6 dilution): 27.65%
AVG PI (human OR1A1 receptor; WT littermates, 10^−7 dilution): 53.88%
AVG PI (human OR1A1 receptor; WT littermates, 10^−8 dilution): 55.52%
Structure (SMILES): C=C(C)C1CC=C(C)C(=O)C1 (single isomer, unassigned; (-)) [(−)-Carvone]

Structure (SMILES): NCC(=O)c1ccccc1 [2 amino acetophenone]
elicit a M71 response ex vivo (M71): did

Structure (SMILES): COc1ccc(C(C)=O)cc1 [4-metoxyacetophenone]
elicit a M71 response ex vivo (M71): did
ex vivo responder grade (M71): high responder
glomerular activity (in vivo SpH imaging) (M71 OR): does not show glomerular activation
saturated vapor pressure (Ps) [1]: 0.0133 mmHg

glomerular activity (in vivo SpH imaging) (M71 OR): observed
average highest (dF/F)max (M71 OR): 4.48%
efficacy [average (dF/F)max] (M71 OR; hemizygous animals): 4.48%
highest efficacy [(dF/F)max] (M71 OR): 3.82%
average efficacy (of all concentrations and odors) (M71 OR; homozygous animals): 3.83%
Structure (SMILES): CC(=O)c1ccc(C)cc1 [4MACP, 4-methyl acetophenone]
elicit a M71 response ex vivo (M71): did
saturated vapor pressure (Ps) [1]: 0.0849 mmHg

Structure (SMILES): CC(=O)c1ccccc1 [ACP, Acetophenone]
elicit a M71 response ex vivo (M71): did
glomerular activity (in vivo SpH imaging) (M71 OR): observed
average highest (dF/F)max (M71 OR): 3.49%
efficacy [(dF/F)max] (M71 OR; hemizygous animals): 0.73%
efficacy [average (dF/F)max] (M71 OR; hemizygous animals): 0.73%
response [(dF/F)max] at highest concentration delivered (M71 OR; heterozygous (hemizygous) animals): 3.46%
highest efficacy [(dF/F)max] (M71 OR): 4.57%
efficacy [(dF/F)max] (M71 OR; homozygous animals): 3.00%
response [(dF/F)max] at highest concentration delivered (M71 OR; homozygous animals): 4.57%
saturated vapor pressure (Ps) [1]: 0.3260 mmHg

Structure (SMILES): O=Cc1ccccc1 [benzaldehyde]
elicit a M71 response ex vivo (M71): did
ex vivo responder grade (M71): low responder

Structure (SMILES): CCc1occc(=O)c1O [ethylmalthol]
elicit a M71 response ex vivo (M71): did

Structure (SMILES): CC(C)[C@@H]1CC[C@@H](C)CC1=O [menthone]
elicit a M71 response ex vivo (M71): did not

Structure (SMILES): COC(=O)c1ccccc1 [methylbenzoate]
elicit a M71 response ex vivo (M71): did not

— patent publication US12063914B2, “DNA sequence that increases odorant receptor representation in the olfactory system” (Research Foundation of the City University of New York, priority 2015, dated 2024)
